# From patent US20100179225A1, “POI Prevention” (CYTOKINE PHARMASCIENCES, INC., priority 2008, published 2010)
# What was measured:
# [1] = tested on: nitric oxide in serum; experiment: Nitrite and nitrate in serum after small intestinal transplantation (Nitrate/Nitrite Colorimetric Assay kit); type: in vivo, Lewis rats; details: 1 mg/kg i.v.
# Protocol: (§1) Syngeneic orthotopic small intestinal transplantation was performed in Lewis rats as previously described (Schwarz N T, Nakao A, Nalesnik M A, Kalff J C, Murase N, Bauer A J. Protective effects of ex vivo graft radiation and tacrolimus on syngeneic transplanted rat small bowel motility. Surgery 2002; 131: 413-423). […] Then the graft vascular bed was perfused with chilled UW solution (University of Wisconcin) and the intestinal lumen was irrigated with 50 ml cold 0.9% NaCl solution containing […]. neomycin sulfate (Uro Nebacetin N, Nycomed, Germany). The graft was stored in cold UW solution during the preparation of the recipient. An end-to-side anastomosis between the graft aorta and the recipient infra-renal aorta, and between the graft vein and recipient vena cava, was performed. Approximately 80% of the recipient intestine was removed and enteric continuity was restored by proximal and distal end-to-end intestinal anastomoses.
# (§2) To investigate the effect of CPSI-2364 on postoperative small bowel ischemia/reperfusion injury and muscular function, CPSI-2364 (1 mg/kg bodyweight, solved in 2.5% mannitol) or vehicle (2.5% mannitol) were administered intravenously once to the donor and the recipient 90 minutes before the beginning of the organ retrieval operation as well as the transplantation procedure that was described above. […]
# [2] = tested on: IL-6; experiment: Serum IL-6 after small intestinal transplantation (ELISA); type: in vivo, Lewis rats; details: 1 mg/kg i.v.
# Protocol: as §1, §2
# [3] = tested on: JNK/SAPK; details: v-myc immortalized spleen derived macrophage cell line; Lowenberg et al. J Immunol 2005; cited from earlier work
compound,measurement,setting,value
C/C(=N\NC(=N)N)c1cc(NC(=O)CCCCCCCCC(=O)Nc2cc(/C(C)=N/NC(=N)N)cc(/C(C)=N/NC(=N)N)c2)cc(/C(C)=N/NC(=N)N)c1 [Semapimod],nitric oxide levels within the serum,[1]; 3 hours after reperfusion,0.17 µmol/L
same,nitric oxide levels within the serum,[1]; 18 hours after reperfusion,1.69 µmol/L
same,release of IL-6 (serum),[2]; after 3 hours,345 pg/mL
same,release of IL-6 (serum),[2]; after 18 hours,35 pg/mL
same,JNK/SAPK phosphorylation,[3],reduce JNK/SAPK phosphorylation
